Assay results published in patent publication US12102633B2, “Spirolactone compounds” (Quixgen, Inc., priority 2017, dated 2024).

Legend:
[1] = Standard PK in CD-1 mice (m-PK); type: in vivo, mouse; settings: for half-life / clearance: male; for half-life: CD-1, mouse, whole blood, read-out: m-PK T1/2 (converted); for clearance: CD-1, whole blood, 1 mg/kg IV, read-out: m-PK Cl; for clearance / m-PK F: mouse; for m-PK F: 5 mg/kg PO vs 1 mg/kg IV
Method: Standard PK. Male catheterized CD-1 mice were treated with Compound 6 prepared in vehicle (5% DMSO+10% Solutol+85% PBS, PH=7.4) at doses of 1 mg/kg for IV (5 mL/kg) or 5 mg/kg for PO (10 mL/kg). Blood samples (20 VL) were collected at 0.083, 0.25, 0.5, 1, 2, 4, 8, and 24 hrs post dose and mixed with 60 VL 0.1 M sodium citrate. Upon extraction by using acetonitrile, blood concentrations of Compound 6 were quantitated by LC-MS/MS. PK parameters were calculated by using WinNonlin® 6.4.

[2] = system: T1, Mouse ACC (ACC protein purified from liver); assay: Mouse ACC enzymatic activity assay; type: biochemical; settings: read-out: EA-CoA mACC IC50
T1 construct: ACC protein was purified by taking advantage of the biotinylation in the carboxylase domain
How it was run: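 ACC affinity-purified from livers of male C57BL/6J mice (biotin-based capture), pre-incubated 10 min at 37 °C with compound. Reaction with 0.5 mM acetyl-CoA, 4.0 mM ATP, 15 mM 13C-NaHCO3, 0.5 mM citrate, pH 7.5, 1 h at 37 °C; malonyl-13C-CoA quantified by LC-MS/MS as pmoles/mg protein per minute.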

3T3-L1 adipocytes = assay: Lipogenesis of 3T3-L1 adipocytes; type: cell-based; settings: Mus musculus, TG readout, read-out: LG-3T3 IC50
Method: 3T3-L1 fibroblast cells (Zen-Bio) were grown in 96-well culture microplate (Corning) with growth media to around 90-100% confluency. Culture media was changed to differentiation media (growth media supplemented with 3-Isobutyl-1-Methylxanthine 500 μM, Dexamethasone 1 μM, insulin 10 μg/mL, and rosiglitazone 2 μM) plus serially diluted compounds prepared in DMSO (1:1000 dilution). After incubation for 2 days, media was changed to maintenance media (growth media supplemented with insulin 10 μg/mL) plus serially diluted compounds prepared in DMSO (1:1000 dilution) for around 1 week with media changed every 2 days. Upon completion of the treatment, culture media are discarded and 200 μL 0.01% SDS was added to each well and shaken for 1 hour to lyse the cells. Cell lysates were then transferred to 400 μL Folch's solution (chloroform: methanol=2:1) and mixed well. After centrifuge at 2,000 rpm for 20 min, 200 μL of the lower organic phase was transferred to a plate with 10 μL sample buffer (chloroform:Triton-100=3:1). Samples were blown dried under nitrogen and 200 μL triglyceride (TG) quantification reagent (Thermo Fisher Scientific) was added, mixed, and incubated at 37° C. for 30 min. TG concentration was determined by reading absorbance at 535 nm (Dynex MRX^e Magellan Biosciences) and calculated from standard curve.

half-life [1]	clearance [1]	m-PK F [1]	IC50 [2]	SMILES	IC50 (3T3-L1 adipocytes)
30 min	15.2 mL/min/kg	F: 53%	0.34 nM	COc1cc(C(=O)N2CCC3(CC2)Cc2ccc(Nc4ccnn4C)cc2C(=O)O3)nc2c(OC)cccc12 [Example 6, 1′-(4,8-dimethoxyquinoline-2-carbonyl)-7-((1-methyl-1H-pyrazol-5-yl)amino)spiro[isochroman-3,4′-piperidin]-1-one]	21.9 nM
25.2 min	46.5 mL/min/kg	F: 4.9%	2.4 nM	COc1cc(C(=O)N2CCC3(CC2)Cc2ccc(C(C)C)cc2C(=O)O3)nc2c(OC)cccc12 [Example 2, 1′-(4,8-dimethoxyquinoline-2-carbonyl)-7-isopropylspiro[isochroman-3,4′-piperidin]-1-one]	0.8 nM
